Here are results for two compounds from ChEMBL document CHEMBL1129718, “Morphan based substance P antagonists” (Bioorg Med Chem Lett, 1996).

The experiment concerns the target Substance-P receptor (Homo sapiens, UniProt P25103). Briefly: Compound was evaluated for binding affinity towards neurokinin NK1 receptor.

Substance-P receptor, sequence (P25103 whole entry): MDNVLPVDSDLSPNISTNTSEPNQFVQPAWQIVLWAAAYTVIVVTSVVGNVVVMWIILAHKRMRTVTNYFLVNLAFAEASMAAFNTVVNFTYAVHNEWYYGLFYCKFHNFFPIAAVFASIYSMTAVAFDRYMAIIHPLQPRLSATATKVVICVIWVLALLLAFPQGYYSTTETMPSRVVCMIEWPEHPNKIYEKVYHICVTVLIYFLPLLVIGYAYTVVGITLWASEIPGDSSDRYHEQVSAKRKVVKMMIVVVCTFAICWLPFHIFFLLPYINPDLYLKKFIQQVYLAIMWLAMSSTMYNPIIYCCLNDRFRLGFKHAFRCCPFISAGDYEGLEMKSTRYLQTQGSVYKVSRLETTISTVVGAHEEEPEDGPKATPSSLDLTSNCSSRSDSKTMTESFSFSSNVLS

Regarding `COc1ccccc1CN[C@H]1C2CCNC1(c1ccccc1)CC=C2C` (some centres not stated), the Ki (usually the dissociation constant of the complex between target and ligand, obtained from inhibition or displacement) is 0.631 nM.

Regarding `COc1ccccc1CN[C@@H]1C2CCNC1(c1ccccc1)CC=C2C` (some centres not stated), the Ki is above 3160 nM.
